According to patent US12503479B2, “Phospholipid-flavagline conjugates and methods of using the same for targeted cancer therapy” (Cellectar Biosciences, Inc., priority 2018, dated 2025):
Read-outs that look alike come from different tables or passages of the source.

Tests used:
[1] = system: Mammary alveolar hyperplasia; experiment: Uptake in benign tissues: Mammary alveolar hyperplasia; assay type: in vivo; conditions: Endogenous Mouse
Intestinal Polyp = experiment: Uptake in benign tissues: Intestinal Polyp; assay type: in vivo; conditions: Endogenous Mouse, Adenoma (benign)
A375 and A549 cells = experiment: Levels of FLV3 in cell lysate and growth media (LC/MS); assay type: cell-based, human
Experimental: FIG. 11 is a graph of concentration versus time for FLV3 detected in the cytosol (normalized to the cytosolic volume) in A375 (human melanoma) and A549 (human lung adenocarcinoma) cell lines.
The levels of FLV3 in cell lysate and growth media were measured using LC/MS. […] Levels of intracellular FLV3 appeared to plateau at 24 hours, while extracellular levels of FLV3 continued to increase.

[2] = system: HCT 116 (human colon cancer); experiment: IC50 in cell lines: HCT 116; assay type: cell-based; conditions: HCT-116, read-out: IC50, HCT 116
[3] = system: A375 (human malignant melanoma); experiment: IC50 in cell lines: A375; assay type: cell-based; conditions: A-375, read-out: IC50, A375
[4] = system: A549 (human lung adenocarcinoma); experiment: cells; assay type: cell-based; conditions: Homo sapiens, A549, read-out: IC50, A549
[5] = system: NHDF (normal human dermal fibroblasts); experiment: cells; assay type: cell-based
[6] = assay type: in vivo, mice
Experimental: Listed in Table 5 are the doses administered to the mice, and how many mice were alive after treatment (“3/3” indicates 3 out of 3 mice were alive). […] MTD for CLR 1865 was between 5 and 10 mg/kg.

[7] = system: A549 (human lung adenocarcinoma) cells; experiment: Cytotoxicity of parent compound versus PDC, tumor cells (Example 8); assay type: cell-based; conditions: increasing concentrations; FIG. 3
Experimental: A549 (human lung adenocarcinoma) cells and normal human dermal fibroblasts (NHDF) were plated in 96 well dishes overnight. […] The difference between the cytotoxicity of the PDC molecule for tumor cells and that of the normal cells may have indicated a potential to improve the parent molecules therapeutic index.

A549 cells = A549 cells treated with methyl b-cyclodextrin compared to untreated cells; 5 μμM, 24 hours
[8] = system: PC3 (grade IV, human prostate adenocarcinoma) cell lines; conditions: 5 μM, 24 hours at 37° C.
Experimental: PC3 (grade IV, human prostate adenocarcinoma) cell lines were cultured overnight on micro slide VI (Ibidi, Verona, WI). […] The next day after washing with PBS, the cells were co-stained with nucleus stain (Hoechst 33342) and mitochondria marker (Mitotracker®) (Invitrogen, Carlsbad, CA). The cells were observed using Nikon A1R confocal microscope. CLR 1501 was excited and detected using Alexa-Fluor 488 filter, while nucleus stain and mitochondria stain were excited and detected using DAPI filter and Texas-Red filter, respectively.

[9] = system: Caki-2 tumor cells (human clear cell renal cell carcinoma); conditions: 5 μM, 24 hours at 37° C., co-culture with normal fibroblast
Experimental: (§1) Normal fibroblast and Caki-2 tumor cells (human clear cell renal cell carcinoma) were plated and co-cultured overnight (FIG. 1F). […] The next day cells were washed and co-stained with nucleus stain (Hoescht 33342). CLR 1501 was excited and then detected with an Alexa-Fluor 488 filter.

Normal fibroblast = conditions: 5 μM, 24 hours at 37° C., co-culture with Caki-2 tumor cells
Experimental: as §1

Hepatocellular Carcinoma = conditions: Endogenous Mouse, Adenocarcinoma
Description: (§2) Various cancer cell lines were exposed in vitro and in vivo to a fluorescently labelled PLE (CLR 1501, compound (1)).

Breast 4T1 = conditions: Endogenous Mouse (orthotopic), Adenocarcinoma
Description: as §2

SCC6 = conditions: Nude Mouse
Description: as §2

TRAMP prostate = conditions: Endogenous Mouse, Adenocarcinoma
Description: as §2

Glioma C6 = conditions: Rat xenograft
Description: as §2

Adrenal H-295 = conditions: SCID Mouse, Adenocarcinoma
Description: as §2

Prostate PC-3 = conditions: SCID Mouse, Adenocarcinoma
Description: as §2

Renal Cell Caki-2 = conditions: Nude Mouse (orthotopic), Adenocarcinoma
Description: as §2

Pancreatic Kras = conditions: Endogenous Mouse, Adenocarcinoma
Description: as §2

Glioma CNS1 = conditions: Rat xenograft
Description: as §2

Colon CT-26 = conditions: SCID Mouse, Adenocarcinoma
Description: as §2

Melanoma = conditions: Mouse, Adenocarcinoma
Description: as §2

Esophageal = conditions: Endogenous Mouse, Adenocarcinoma
Description: as §2

Cervical = conditions: Endogenous Mouse, Adenocarcinoma
Description: as §2

Pancreatic c-myc = conditions: Endogenous Mouse, Adenocarcinoma
Description: as §2

Pancreatic BXPC3 = conditions: Nude Mouse, Adenocarcinoma
Description: as §2

Walker-256 = conditions: Rat, Carcinosarcoma
Description: as §2

Glioma RG2 = conditions: Rat xenograft
Description: as §2

Ovarian HTB-77 = conditions: Nude Mouse, Adenocarcinoma
Description: as §2

Prostate LuCap = conditions: Mouse, Adenocarcinoma
Description: as §2

Adrenal RL-251 = conditions: SCID Mouse, Adenocarcinoma
Description: as §2

[10] = system: cancer stem cells, normal brain tissue, and normal stem cells; conditions: FIG. 7
Description: as §2

Colon-51 = conditions: SCID Mouse, Colorectal adenocarcinoma
Description: as §2

Retinoblastoma = conditions: Endogenous Mouse, Blastoma
Description: as §2

Colon HT-29 = conditions: SCID Mouse, Colorectal adenocarcinoma
Description: as §2

Colon LS-180 = conditions: Nude Mouse, Adenocarcinoma
Description: as §2

Pancreatic Capan-1 = conditions: Nude Mouse, Adenocarcinoma
Description: as §2

[11] = system: Various cancer cell lines; conditions: in vitro and in vivo; uptake measured continuously for 24 hours
Description: as §2

Lung A-549 (NSCLC) = conditions: SCID Mouse, Adenocarcinoma
Description: as §2

Prostate MatLyLu = conditions: Rat, Adenocarcinoma
Description: as §2

Sarcoma (Meth-A) = conditions: Nude Mouse, Fibrosarcoma
Description: as §2

Breast MCF-7 = conditions: Rat, Adenocarcinoma
Description: as §2

Mammary SCC = conditions: Apc^Min/+ mouse, Squamous cell carcinoma
Description: as §2

Colon DLDI = conditions: SCID Mouse, Colorectal adenocarcinoma
Description: as §2

Lung NCI H-69 (Oat Cell) = conditions: SCID Mouse
Description: as §2

Renal Cell ACHN = conditions: Nude Mouse (orthotopic), Adenocarcinoma
Description: as §2

Prostate LnCap = conditions: Mouse, Adenocarcinoma
Description: as §2

Glioma L9 = conditions: Rat xenograft
Description: as §2

ColonLS180 = conditions: SCID Mouse, Colorectal adenocarcinoma
Description: as §2

Melanoma A-375 = conditions: Nude Mouse
Description: as §2

Min Mouse Intestinal = conditions: Endogenous Mouse, Adenocarcinoma
Description: as §2

SCC1 = conditions: Nude Mouse, Squamous cell carcinoma
Description: as §2

Mammary AC = conditions: Apc^Min/+ mouse, Adenocarcinoma
Description: as §2

myeloma cell lines = conditions: FIG. 6
Description: as §2

benign tissues = conditions: in vivo

C[N+](C)(C)CCOP(=O)([O-])OCCCCCCCCCCCCCCCCCCc1ccc(I)cc1 [CLR1404]
Tumor Uptake [1]: No | Tumor Uptake (Intestinal Polyp): No

COC(=O)[C@@H]1[C@H](O)[C@]2(O)c3c(OC)cc(OCCCCN)cc3O[C@]2(c2ccc(OC)cc2)[C@H]1c1ccccc1 [FLV3, reference compound]
Time at which levels of intracellular FLV3 plateau (A375 and A549 cells): 24 h | Levels of FLV3 in the growth media (A375 and A549 cells; after 24 hours): Moderate levels | Levels of FLV3 in the cell lysate (A375 and A549 cells; after 24 hours, FIG. 11): high levels | IC50 [2]: 9 nM | IC50 [3]: 15 nM | IC50 [4]: 90 nM | IC50 ([5]; Homo sapiens, NHDF, read-out: IC50, NHDF): 8 nM | Therapeutic Index (TI) ([5]; not defined, equals NHDF IC50 over lowest tumor line IC50): 0.89 | Mice alive after treatment ([6]; Dose 0.1 mg/kg): 3/3 | Mice alive after treatment ([6]; Dose 0.25 mg/kg): 3/3 | Cytotoxic potency to A549 cells versus NHDF cells (selectivity) [7]: near equal potency to the A549 cells as it did to the NHDF cells

C[N+](C)(C)CCOP(=O)([O-])OCCCCCCCCCCCCCCCCCCc1ccc(C2=C3C=CC=[N+]3[B-](F)(F)n3cccc32)cc1 [CLR 1501]
Reduction in uptake after disruption of lipid rafts (A549 cells): 60% | Co-localization with mitochondria [8]: co-localized with mitochondria | Localization in Caki-2 cells [9]: highly localized | Localization in normal fibroblast cells (Normal fibroblast): minimally | Tumor Uptake (Hepatocellular Carcinoma): Yes | Tumor Uptake (Breast 4T1): Yes | Tumor Uptake (SCC6): Yes | Tumor Uptake (TRAMP prostate): Yes | Tumor Uptake (Glioma C6): Yes | Tumor Uptake (Adrenal H-295): Yes | Tumor Uptake (Prostate PC-3): Yes | Tumor Uptake (Renal Cell Caki-2): Yes | Tumor Uptake (Pancreatic Kras): Yes | Tumor Uptake (Glioma CNS1): Yes | Tumor Uptake (Colon CT-26): Yes | Tumor Uptake (Melanoma): Yes | Tumor Uptake (Esophageal): Yes | Tumor Uptake (Cervical): Yes | Tumor Uptake (Pancreatic c-myc): Yes | Tumor Uptake (Pancreatic BXPC3): Yes | Tumor Uptake (Walker-256): Yes | Tumor Uptake (Glioma RG2): Yes | Tumor Uptake (Ovarian HTB-77): Yes | Tumor Uptake (Prostate LuCap): Yes | Tumor Uptake (Adrenal RL-251): Yes | Uptake into cancer cells versus normal brain tissue and normal stem cells [10]: specific uptake | Tumor Uptake (Colon-51): Yes | Tumor Uptake (Retinoblastoma): Yes | Tumor Uptake (Colon HT-29): Yes | Tumor Uptake (Colon LS-180): Yes | Tumor Uptake (Pancreatic Capan-1): Yes | Specificity for tumors and cancer cells [11]: specific for tumors and cancer cells | Tumor Uptake (Lung A-549 (NSCLC)): Yes | Tumor Uptake (Prostate MatLyLu): Yes | Tumor Uptake (Sarcoma (Meth-A)): Yes | Tumor Uptake (Breast MCF-7): Yes | Tumor Uptake (Mammary SCC): Yes | Tumor Uptake (Colon DLDI): Yes | Tumor Uptake (Lung NCI H-69 (Oat Cell)): Yes | Tumor Uptake (Renal Cell ACHN): Yes | Tumor Uptake (Prostate LnCap): Yes | Tumor Uptake (Glioma L9): Yes | Tumor Uptake (ColonLS180): Yes | Tumor Uptake (Melanoma A-375): Yes | Tumor Uptake (Min Mouse Intestinal): Yes | Tumor Uptake (SCC1): Yes | Tumor Uptake (Mammary AC): Yes | Uptake, myeloma cell lines (myeloma cell lines): uptake | Uptake in benign tissues (benign tissues): no uptake was observed
